# Measurements taken from US20180052105A1, “SULFANE SULFUR-SELECTIVE FLUORESCENT PROBE” (The University of Tokyo, priority 2015, published 2018).
# Legend:
# [1] = Absorption and fluorescence spectra of the probe after addition of Na2S4 in buffer; settings: 1 μM probe, 0.1 M sodium phosphate buffer pH 7.4, 300 μM GSH
# Description: Na2S4 was added to compound 8 synthesized as described above, and the absorption spectrum (UV-1650PC, Shimadzu) and fluorescence spectrum (F-4500, Hitachi) were measured.
# (§1) The excitation wavelength was 470 nm.
# Na2S4 was added to the synthesized compound a1, compound a2, and compound 25, which was obtained by deprotecting compound a4, and the absorption and fluorescence spectra were measured.
# [2] = Reversibility of SSip-1 (in vitro assay in the presence of 5 mM of GSH); settings: 1 μM probe, pH 7.4, 5 mM GSH
# Description: Reversibility of SSip-1 (In Vitro Assay in the Presence of 5 mM of GSH)
# The existence of a response to sulfane sulfur was studied in the presence of 5 mM of GSH, which is the GSH concentration in cells (FIG. 4).
# as §1
# [3] = Selectivity with H2S (addition of NaHS); settings: 0.1 μm of SSip-1, pH 7.4, 300 μM GSH, 50 μM NaHS, excitation 470 nm
# Text: as §1
# [4] = test system: A549 cells; assay: Live cell imaging (confocal microscope) with Na2S4 added; format: cell-based
# Description: The SSip-1 DA was introduced into A549 cells, and 500 μM of Na2S4 was added outside the cells under a microscope. The A549 cells were incubated for three hours by 10 μM of SSip-1 DA (containing 0.0003% Purulonic and 1% DMSO as a co-solvent). The excitation wavelength was 488 nm, and the emission wavelengths were 500-570 nm and 590-650 nm. […]
# [5] = test system: cells; assay: Localization in cells, co-staining with Lysotracker or Mitotracker; format: cell-based
# Description: The localization in cells was studied using compound a3. […] The cells were incubated for one hour by 10 μM of compound a3 and 50 nM of Lysotracker Deep red or 200 nM of Mitotracker Deep red in DMEM (containing 0.03% Purulonic and 0.1% DMSO as a co-solvent). Ex/Em=488 nm (laser intensity 20%)/500-540 nm (PMT1000) and 650 nm/670-700 nm (PMT600)
# [6] = A549 cells incubated 3 h with 10 μM SSip-1 DA, 500 μM Na2S4 added, excitation 488 nm
substance,measurement,setting,value
SSip-1,change in absorbance on the rhodamine side,[1]; after 50 μM Na2S4,decrease in absorbance on the rhodamine side
same,rise in fluorescence intensity,"[1]; after 50 μM Na2S4, excitation 470 nm",approximately 10 fold
same,fluorescence after addition of Na2S4,"[2]; 50 μM Na2S4, excitation 470 nm",the fluorescence rose after addition of Na2S4
same,reversibility (fluorescence on repeated Na2S4 addition),[2]; Na2S4 added again,showing reversibility
same,rise in fluorescence intensity with H2S donor,[3],virtually no rise in fluorescence intensity
same,intensity of the fluorescein-derived fluorescence wavelength region (500-570 nm),[4]; [6],increased
same,intensity of the rhodamine-derived fluorescence wavelength region (590-650 nm),[4]; [6],decreased slightly
same,time for fluorescence to decrease after washout,"[4]; A549 live cells, after washout of 250 μM Na2S4",about 20 minutes
same,time for fluorescence to rise after Na2S4 addition,"[4]; A549 live cells, repeated addition of 250 μM Na2S4",within one minute
same,merging with Lysotracker and Mitotracker,[5]; cells incubated 1 h with 10 μM compound a3 and 50 nM Lysotracker Deep red or 200 nM Mitotracker Deep red in DMEM,did not merge with Lysotracker and Mitotracker
same,localization in cells,[5]; in comparison to the localization when only SSip-1 was loaded,localized in the mitochondria
